Measured values taken from patent publication EP4722207A1, “OXOISOINDOLINYL-SUBSTITUTED TETRAHYDROPYRIMIDINEDIONE DERIVATIVE AND USE THEREOF” (Gluetacs Therapeutics (Shanghai) Co., Ltd., priority 2023, dated 2024).

Legend:
WEE1 = molecular target: T1, WEE1 (Homo sapiens, UniProt P30291+Q96SW2); experiment: Western-blot assay, substrate protein degradation in hPBMCs: WEE1; format: cell-based; settings: 24 hours of compound treatment, 50 nM and 500 nM
T1 construct: effects of the compounds of the present disclosure on the expression of target proteins in cells; endogenous in cells; host or cells: human PBMCs (hPBMCs)

IKZF3 = molecular target: T2, IKZF3 (Homo sapiens, UniProt Q96SW2+Q9UKT9); experiment: Western-blot assay, substrate protein degradation in hPBMCs: IKZF3; format: cell-based; settings: 24 hours of compound treatment, 50 nM and 500 nM
T2 construct: effects of the compounds of the present disclosure on the expression of target proteins in cells; endogenous in cells; host or cells: human PBMCs (hPBMCs)

CK1α = molecular target: T3, CK1α (Homo sapiens, UniProt P48729+Q96SW2); experiment: Western-blot assay, substrate protein degradation in hPBMCs: CK1α; format: cell-based; settings: 24 hours of compound treatment, 50 nM and 500 nM
T3 construct: effects of the compounds of the present disclosure on the expression of target proteins in cells; endogenous in cells; host or cells: human PBMCs (hPBMCs)

GSPT1 = molecular target: T4, GSPT1 (Homo sapiens, UniProt P15170+Q96SW2); experiment: Western-blot assay, substrate protein degradation in hPBMCs: GSPT1; format: cell-based; settings: 24 hours of compound treatment, 50 nM and 500 nM
T4 construct: effects of the compounds of the present disclosure on the expression of target proteins in cells; endogenous in cells; host or cells: human PBMCs (hPBMCs)

IKZF2 = molecular target: T5, IKZF2 (Homo sapiens, UniProt Q96SW2+Q9UKS7); experiment: Western-blot assay, substrate protein degradation in hPBMCs: IKZF2; format: cell-based; settings: 24 hours of compound treatment, 50 nM and 500 nM
T5 construct: effects of the compounds of the present disclosure on the expression of target proteins in cells; endogenous in cells; host or cells: human PBMCs (hPBMCs)

IKZF1 = molecular target: T6, IKZF1 (Homo sapiens, UniProt Q13422+Q96SW2); experiment: Western-blot assay, substrate protein degradation in hPBMCs: IKZF1; format: cell-based; settings: 24 hours of compound treatment, 50 nM and 500 nM
T6 construct: effects of the compounds of the present disclosure on the expression of target proteins in cells; endogenous in cells; host or cells: human PBMCs (hPBMCs)

H292 = experiment: Cell viability assay (CellTiter-Meiluncell Luminescent), tumor cell proliferation, H292; settings: Homo sapiens, NCI-H292, 96 h; for inhibition at 0.01 µM: read-out: Inhibition Rate at 10 nM (%); for inhibition at 0.5 µM: read-out: Inhibition Rate at 500 nM (%)

T6 sequence (Q13422 whole entry): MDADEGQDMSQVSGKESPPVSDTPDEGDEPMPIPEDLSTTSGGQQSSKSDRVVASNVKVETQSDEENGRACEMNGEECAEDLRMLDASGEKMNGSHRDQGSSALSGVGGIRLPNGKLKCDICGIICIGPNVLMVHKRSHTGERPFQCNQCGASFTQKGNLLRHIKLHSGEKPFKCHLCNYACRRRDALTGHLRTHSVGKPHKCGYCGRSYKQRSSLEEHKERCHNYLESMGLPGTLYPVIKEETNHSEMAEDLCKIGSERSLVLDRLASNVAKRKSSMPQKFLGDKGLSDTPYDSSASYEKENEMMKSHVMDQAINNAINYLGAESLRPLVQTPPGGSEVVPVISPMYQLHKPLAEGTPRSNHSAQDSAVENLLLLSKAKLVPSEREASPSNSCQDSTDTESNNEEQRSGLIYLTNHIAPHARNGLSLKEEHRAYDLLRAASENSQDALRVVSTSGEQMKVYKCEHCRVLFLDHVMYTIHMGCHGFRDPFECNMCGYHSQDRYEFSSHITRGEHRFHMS
T6 sequence (Q96SW2 whole entry): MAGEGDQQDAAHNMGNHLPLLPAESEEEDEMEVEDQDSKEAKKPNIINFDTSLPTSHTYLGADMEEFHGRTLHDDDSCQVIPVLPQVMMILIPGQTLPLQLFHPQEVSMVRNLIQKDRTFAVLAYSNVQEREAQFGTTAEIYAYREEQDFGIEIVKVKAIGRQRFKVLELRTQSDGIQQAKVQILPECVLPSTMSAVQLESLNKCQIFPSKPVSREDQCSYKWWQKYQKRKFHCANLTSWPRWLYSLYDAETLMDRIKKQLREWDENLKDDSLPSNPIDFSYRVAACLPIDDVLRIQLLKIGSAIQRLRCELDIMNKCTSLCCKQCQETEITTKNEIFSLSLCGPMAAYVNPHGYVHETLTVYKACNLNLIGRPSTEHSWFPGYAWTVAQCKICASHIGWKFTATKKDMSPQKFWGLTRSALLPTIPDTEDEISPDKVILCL
T6 sequence (Q16531 whole entry partner): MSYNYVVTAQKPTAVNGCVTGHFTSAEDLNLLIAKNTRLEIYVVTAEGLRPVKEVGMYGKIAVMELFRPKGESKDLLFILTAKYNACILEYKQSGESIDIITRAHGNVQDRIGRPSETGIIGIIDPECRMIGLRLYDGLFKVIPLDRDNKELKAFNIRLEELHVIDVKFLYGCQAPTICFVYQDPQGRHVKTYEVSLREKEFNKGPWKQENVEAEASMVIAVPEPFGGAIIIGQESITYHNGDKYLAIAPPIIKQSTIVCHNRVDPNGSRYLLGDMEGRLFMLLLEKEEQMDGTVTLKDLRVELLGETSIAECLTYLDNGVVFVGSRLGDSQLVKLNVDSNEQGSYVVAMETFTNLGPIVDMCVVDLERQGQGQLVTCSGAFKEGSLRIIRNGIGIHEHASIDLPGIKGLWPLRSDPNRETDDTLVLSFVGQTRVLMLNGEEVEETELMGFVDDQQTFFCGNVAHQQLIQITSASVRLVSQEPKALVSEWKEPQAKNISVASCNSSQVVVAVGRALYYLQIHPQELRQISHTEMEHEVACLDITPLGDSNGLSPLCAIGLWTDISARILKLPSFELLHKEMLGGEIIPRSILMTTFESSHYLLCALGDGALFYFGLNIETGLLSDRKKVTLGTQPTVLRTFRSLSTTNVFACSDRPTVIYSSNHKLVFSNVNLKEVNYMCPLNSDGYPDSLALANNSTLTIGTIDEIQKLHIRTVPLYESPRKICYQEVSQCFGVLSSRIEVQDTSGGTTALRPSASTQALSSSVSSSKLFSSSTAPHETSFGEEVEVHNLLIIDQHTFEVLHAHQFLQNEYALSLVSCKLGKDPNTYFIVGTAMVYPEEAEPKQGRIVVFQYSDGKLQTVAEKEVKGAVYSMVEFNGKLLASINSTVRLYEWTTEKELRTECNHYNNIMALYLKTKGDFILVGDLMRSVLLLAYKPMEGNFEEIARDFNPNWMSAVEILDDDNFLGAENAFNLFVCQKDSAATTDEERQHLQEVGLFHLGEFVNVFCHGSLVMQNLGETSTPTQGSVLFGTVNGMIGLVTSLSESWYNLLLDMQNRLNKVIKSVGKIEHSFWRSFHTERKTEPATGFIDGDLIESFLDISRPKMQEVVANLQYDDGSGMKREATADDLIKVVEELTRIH
T3 sequence (P48729 whole entry): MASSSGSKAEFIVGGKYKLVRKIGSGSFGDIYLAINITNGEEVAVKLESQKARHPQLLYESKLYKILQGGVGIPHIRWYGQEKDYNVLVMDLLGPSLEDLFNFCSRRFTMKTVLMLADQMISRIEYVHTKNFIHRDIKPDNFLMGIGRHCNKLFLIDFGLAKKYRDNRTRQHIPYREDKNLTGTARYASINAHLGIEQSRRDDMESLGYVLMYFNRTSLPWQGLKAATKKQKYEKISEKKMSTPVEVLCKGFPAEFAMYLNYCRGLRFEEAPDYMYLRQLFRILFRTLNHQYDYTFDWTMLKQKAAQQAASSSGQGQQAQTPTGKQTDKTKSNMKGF
T3 sequence (Q96SW2 whole entry): as the sequence (Q96SW2 whole entry) above
T3 sequence (Q16531 whole entry partner): as the sequence (Q16531 whole entry partner) above
T5 sequence (Q9UKS7 whole entry): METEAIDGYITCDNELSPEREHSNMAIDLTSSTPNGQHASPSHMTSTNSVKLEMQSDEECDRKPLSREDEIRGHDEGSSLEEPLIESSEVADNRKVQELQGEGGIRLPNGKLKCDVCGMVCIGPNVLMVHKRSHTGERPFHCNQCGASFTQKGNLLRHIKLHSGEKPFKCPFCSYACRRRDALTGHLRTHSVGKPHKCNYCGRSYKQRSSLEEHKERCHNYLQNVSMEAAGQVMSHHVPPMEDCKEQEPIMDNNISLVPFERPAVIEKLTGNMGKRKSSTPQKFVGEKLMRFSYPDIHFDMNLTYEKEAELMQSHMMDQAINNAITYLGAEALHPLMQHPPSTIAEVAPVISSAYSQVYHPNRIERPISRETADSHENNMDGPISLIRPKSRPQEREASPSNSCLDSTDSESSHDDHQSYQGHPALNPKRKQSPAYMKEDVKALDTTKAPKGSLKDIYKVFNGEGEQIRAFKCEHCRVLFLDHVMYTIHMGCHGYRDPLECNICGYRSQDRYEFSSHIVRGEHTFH
T5 sequence (Q96SW2 whole entry): as the sequence (Q96SW2 whole entry) above
T5 sequence (Q16531 whole entry partner): as the sequence (Q16531 whole entry partner) above
T2 sequence (Q9UKT9 whole entry): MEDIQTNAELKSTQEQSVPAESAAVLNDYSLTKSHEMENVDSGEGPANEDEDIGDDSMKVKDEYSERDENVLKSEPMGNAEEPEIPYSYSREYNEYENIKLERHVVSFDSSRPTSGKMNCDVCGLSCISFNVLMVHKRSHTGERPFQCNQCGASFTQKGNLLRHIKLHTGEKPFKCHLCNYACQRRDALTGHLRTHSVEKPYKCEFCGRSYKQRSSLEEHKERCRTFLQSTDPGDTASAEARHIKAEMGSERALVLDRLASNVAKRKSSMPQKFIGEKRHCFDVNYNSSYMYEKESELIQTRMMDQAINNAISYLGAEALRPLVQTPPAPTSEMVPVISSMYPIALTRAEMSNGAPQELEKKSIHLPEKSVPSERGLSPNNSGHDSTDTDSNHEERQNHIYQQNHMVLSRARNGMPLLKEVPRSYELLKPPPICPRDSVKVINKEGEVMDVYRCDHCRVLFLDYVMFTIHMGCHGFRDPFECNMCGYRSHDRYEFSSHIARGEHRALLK
T2 sequence (Q96SW2 whole entry): as the sequence (Q96SW2 whole entry) above
T2 sequence (Q16531 whole entry partner): as the sequence (Q16531 whole entry partner) above
T4 sequence (P15170 whole entry): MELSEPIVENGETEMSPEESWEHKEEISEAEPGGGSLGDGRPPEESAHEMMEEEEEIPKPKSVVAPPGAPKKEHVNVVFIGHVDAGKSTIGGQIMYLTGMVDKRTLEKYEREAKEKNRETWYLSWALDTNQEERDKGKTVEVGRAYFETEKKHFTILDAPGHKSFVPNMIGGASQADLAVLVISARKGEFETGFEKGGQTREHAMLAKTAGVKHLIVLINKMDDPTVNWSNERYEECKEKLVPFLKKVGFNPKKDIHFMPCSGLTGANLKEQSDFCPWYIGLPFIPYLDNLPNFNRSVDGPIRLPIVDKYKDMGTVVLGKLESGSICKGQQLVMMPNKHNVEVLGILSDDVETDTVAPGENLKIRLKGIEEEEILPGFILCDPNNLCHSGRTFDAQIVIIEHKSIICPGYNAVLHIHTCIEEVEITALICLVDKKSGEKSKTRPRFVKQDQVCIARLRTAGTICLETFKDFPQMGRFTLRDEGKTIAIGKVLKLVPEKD
T4 sequence (Q96SW2 whole entry): as the sequence (Q96SW2 whole entry) above
T4 sequence (Q16531 whole entry partner): as the sequence (Q16531 whole entry partner) above

SMILES	substrate protein remaining % WEE1 (WEE1)	substrate protein remaining % IKZF3 (IKZF3)	substrate protein remaining % CK1α (CK1α)	substrate protein remaining % GSPT1 (GSPT1)	substrate protein remaining % IKZF2 (IKZF2)	substrate protein remaining % IKZF1 (IKZF1)	inhibition at 0.01 µM (H292) [%]	inhibition at 0.5 µM (H292) [%]
O=C1CCN(N2C(=O)c3ccc(CN4CCN(c5nc6c(c(N7CCOCC7)n5)SCC6)CC4)cc3C2=O)C(=O)N1 [GT-08451, 2-(2,4-dioxotetrahydropyrimidin-1(2H)-yl)-5-((4-(4-morpholino-6,7-dihydrothieno[3,2-d]pyrimidin-2-yl)piperazin-1-yl)methyl)isoindoline-1,3-dione]	B (80%< substrate protein remaining %≤ 100%)	A (0% ≤ substrate protein remaining % ≤ 80%)	A (0% ≤ substrate protein remaining % ≤ 80%)	B (80%< substrate protein remaining %≤ 100%)	B (80%< substrate protein remaining %≤ 100%)	B (80%< substrate protein remaining %≤ 100%)	15 to 20	20 to 40
Cc1nc(C2=CCN(Cc3ccc4c(c3)C(=O)N(N3CCC(=O)NC3=O)C4=O)CC2)c2c3c(sc2n1)CCCC3 [GT-08432, 2-(2,4-dioxotetrahydropyrimidin-1(2H)-yl)-5-((4-(2-methyl-5,6,7,8-tetrahydrobenzo[4,5]thieno[2,3-d]pyrimidin-4-yl)-3,6-dihydropyridin-1(2H)-yl)methyl)isoindoline-1,3-dione]	B (80%< substrate protein remaining %≤ 100%)	A (0% ≤ substrate protein remaining % ≤ 80%)	A (0% ≤ substrate protein remaining % ≤ 80%)	A (0% ≤ substrate protein remaining % ≤ 80%)	B (80%< substrate protein remaining %≤ 100%)	B (80%< substrate protein remaining %≤ 100%)	20 to 40	20 to 40
O=C1CCN(N2C(=O)c3ccc(CN4CCN(c5ncnc6sc7c(c56)CCC7)CC4)cc3C2=O)C(=O)N1 [GT-08103, 5-((4-(6,7-dihydro-5H-cyclopenta[4,5]thieno[2,3-d]pyrimidin-4-yl)piperazin-1-yl)methyl)-2-(2,4-dioxotetrahydropyrimidin-1(2H)-yl)isoindoline-1,3-dione]	B (80%< substrate protein remaining %≤ 100%)	A (0% ≤ substrate protein remaining % ≤ 80%)	B (80%< substrate protein remaining %≤ 100%)	B (80%< substrate protein remaining %≤ 100%)	A (0% ≤ substrate protein remaining % ≤ 80%)	B (80%< substrate protein remaining %≤ 100%)	15 to 20	15 to 20
Cc1csc2ncnc(C3=CCN(Cc4ccc5c(c4)C(=O)N(N4CCC(=O)NC4=O)C5=O)CC3)c12 [GT-08428, 2-(2,4-dioxotetrahydropyrimidin-1(2H)-yl)-5-((4-(5-methylthieno[2,3-d]pyrimidin-4-yl)-3,6-dihydropyridin-1(2H)-yl)methyl)isoindoline-1,3-dione]	A (0% ≤ substrate protein remaining % ≤ 80%)	A (0% ≤ substrate protein remaining % ≤ 80%)	B (80%< substrate protein remaining %≤ 100%)	B (80%< substrate protein remaining %≤ 100%)	A (0% ≤ substrate protein remaining % ≤ 80%)	B (80%< substrate protein remaining %≤ 100%)	5 to 10	20 to 40
Cc1nc(C2=CCN(Cc3ccc4c(c3)CN(N3CCC(=O)NC3=O)C4=O)CC2)c2c3c(sc2n1)CCC3 [GT-08437, 1-(5-((4-(2-methyl-6,7-dihydro-5H-cyclopenta[4,5]thieno[2,3-d]pyrimidin-4-yl)-3,6-dihydropyridin-1(2H)-yl)methyl)-1-oxoisoindolin-2-yl)dihydropyrimidine-2,4(1H,3H)-dione]	A (0% ≤ substrate protein remaining % ≤ 80%)	A (0% ≤ substrate protein remaining % ≤ 80%)	B (80%< substrate protein remaining %≤ 100%)	A (0% ≤ substrate protein remaining % ≤ 80%)	B (80%< substrate protein remaining %≤ 100%)	A (0% ≤ substrate protein remaining % ≤ 80%)	20 to 40	15 to 20
O=C1CCN(N2C(=O)c3ccc(CN4CCN(c5nc(N6CCOCC6)nc6ccsc56)CC4)cc3C2=O)C(=O)N1 [GT-08455, 2-(2,4-dioxotetrahydropyrimidin-1(2H)-yl)-5-((4-(2-morpholinothieno[3,2-d]pyrimidin-4-yl)piperazin-1-yl)methyl)isoindoline-1,3-dione]	B (80%< substrate protein remaining %≤ 100%)	A (0% ≤ substrate protein remaining % ≤ 80%)	A (0% ≤ substrate protein remaining % ≤ 80%)	A (0% ≤ substrate protein remaining % ≤ 80%)	B (80%< substrate protein remaining %≤ 100%)	B (80%< substrate protein remaining %≤ 100%)	5 to 10	15 to 20
O=C1CCN(N2C(=O)c3ccc(CN4CC=C(c5ncnc6sc7c(c56)CCC7)CC4)cc3C2=O)C(=O)N1 [GT-08434, 5-((4-(6,7-dihydro-5H-cyclopenta[4,5]thieno[2,3-d]pyrimidin-4-yl)-3,6-dihydropyridin-1(2H)-yl)methyl)-2-(2,4-dioxotetrahydropyrimidin-1(2H)-yl)isoindoline-1,3-dione]	B (80%< substrate protein remaining %≤ 100%)	A (0% ≤ substrate protein remaining % ≤ 80%)	A (0% ≤ substrate protein remaining % ≤ 80%)	A (0% ≤ substrate protein remaining % ≤ 80%)	A (0% ≤ substrate protein remaining % ≤ 80%)	A (0% ≤ substrate protein remaining % ≤ 80%)	20 to 40	15 to 20
O=C1CCN(N2Cc3cc(CN4CCN(c5nc(Cl)nc6c5SCC6)CC4)ccc3C2=O)C(=O)N1 [GT-08439, 1-(5-((4-(2-chloro-6,7-dihydrothieno[3,2-d]pyrimidin-4-yl)piperazin-1-yl)methyl)-1-oxoisoindolin-2-yl)dihydropyrimidine-2,4(1H,3H)-dione]	A (0% ≤ substrate protein remaining % ≤ 80%)	A (0% ≤ substrate protein remaining % ≤ 80%)	B (80%< substrate protein remaining %≤ 100%)	A (0% ≤ substrate protein remaining % ≤ 80%)	B (80%< substrate protein remaining %≤ 100%)	A (0% ≤ substrate protein remaining % ≤ 80%)	20 to 40	20 to 40
O=C1CCN(N2Cc3cc(CN4CCN(c5ncnc6ccsc56)CC4)ccc3C2=O)C(=O)N1 [GT-08443, 1-(1-oxo-5-((4-(thieno[3,2-d]pyrimidin-4-yl)piperazin-1-yl)methyl)isoindolin-2-yl)dihydropyrimidine-2,4(1H,3H)-dione]	A (0% ≤ substrate protein remaining % ≤ 80%)	B (80%< substrate protein remaining %≤ 100%)	B (80%< substrate protein remaining %≤ 100%)	B (80%< substrate protein remaining %≤ 100%)	B (80%< substrate protein remaining %≤ 100%)	B (80%< substrate protein remaining %≤ 100%)	20 to 40	40 to 60
O=C1CCN(N2C(=O)c3ccc(CN4CCN(c5ncc6ccsc6n5)CC4)cc3C2=O)C(=O)N1 [GT-08105, 2-(2,4-dioxotetrahydropyrimidin-1(2H)-yl)-5-((4-(thieno[2,3-d]pyrimidin-2-yl)piperazin-1-yl)methyl)isoindoline-1,3-dione]	B (80%< substrate protein remaining %≤ 100%)	A (0% ≤ substrate protein remaining % ≤ 80%)	B (80%< substrate protein remaining %≤ 100%)	A (0% ≤ substrate protein remaining % ≤ 80%)	A (0% ≤ substrate protein remaining % ≤ 80%)	B (80%< substrate protein remaining %≤ 100%)	10 to 15	10 to 15
O=C1CCN(N2Cc3cc(CN4CCC(c5ncc6ccsc6n5)CC4)ccc3C2=O)C(=O)N1 [GT-08115, 1-(1-oxo-5-((4-(thieno[2,3-d]pyrimidin-2-yl)piperidin-1-yl)methyl)isoindolin-2-yl)dihydropyrimidine-2,4(1H,3H)-dione]	B (80%< substrate protein remaining %≤ 100%)	B (80%< substrate protein remaining %≤ 100%)	A (0% ≤ substrate protein remaining % ≤ 80%)	A (0% ≤ substrate protein remaining % ≤ 80%)	B (80%< substrate protein remaining %≤ 100%)	B (80%< substrate protein remaining %≤ 100%)	20 to 40	15 to 20
